# PubChem BioAssay (NCI)
#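 96-well plates; 48 h exposure; 5 concentrations. Endpoints by linear interpolation between flanking doses. Not reached: highest tested concentration assigned. GI50 marks 50% less growth. At the TGI there is no net growth.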
# Assays:
# Assay in all cases: DTP human tumour cell line panel, 48 h
# [1] = system: HCC-2998 colon
# [2] = system: CCRF-CEM leukemia
# [3] = system: MALME-3M melanoma
# [4] = system: MDA-MB-435
# [5] = system: SF-539 CNS
# [6] = system: UACC-62 melanoma
# [7] = system: MOLT-4 leukemia
# [8] = system: CAKI-1 renal
# [9] = system: RPMI-8226 leukemia
# [10] = system: MDA-N
SMILES,GI50 [1] [µM],TGI [1] [µM],GI50 [2] [µM],TGI [2] [µM],GI50 [3] [µM],TGI [3] [µM],GI50 [4] [µM],TGI [4] [µM],GI50 [5] [µM],TGI [5] [µM],GI50 [6] [µM],TGI [6] [µM],GI50 [7] [µM],TGI [7] [µM],GI50 [8] [µM],TGI [8] [µM],GI50 [9] [µM],TGI [9] [µM],TGI [10] [µM]
O=C(Nc1ccc(-n2cc(-c3ccncc3)c(-c3ccc(O)c(Cl)c3)n2)cc1)Nc1cccc(Cl)c1Cl,18.9,> 32.5,2.47,> 32.5,4.94,> 32.5,4.5,> 32.5,2.04,9.27,9.79,> 32.5,3.7,> 32.5,> 32.5,> 32.5,0.912,6.08,–
COc1ccc2c(c1)CCN=C2c1ccccc1CCCCl,–,24.9,–,> 100,–,–,–,> 100,–,45.6,–,> 100,–,42.4,–,70.2,–,11.8,–
CCc1nc2cc3cccnc3c(Cl)c2[nH]c1=O,–,> 100,–,> 100,–,> 100,–,> 100,–,–,–,> 100,–,> 100,–,> 100,–,> 100,> 100
COC(=O)C1=C(O)C(C(=O)OC)[C@@]2(O)[C@@H](C(=O)OC)[C@H](C)[C@@H](C)[C@@H]1[C@@H]2C(=O)OC (stereo not given in full),–,> 100,–,> 100,–,> 100,–,39.2,–,> 100,–,> 100,–,> 100,–,–,–,> 100,50.1
CCCOC(=O)NC(C)C(=O)NC(CCC(=O)NC(CCCC(N)C(=O)O)C(=O)NC(C)C(=O)O)C(=O)O (stereo not given),–,34.8,–,36.9,–,–,–,> 100,–,31.3,–,33.7,–,41.9,–,40.7,–,32.2,44.6
COc1cc2c(cc1OC)C13CC[N+]4(C)CC5=CCOC6CC(=O)N2C1C6C5CC34[O-] (stereo not given),–,–,–,> 100,–,> 100,–,> 100,–,> 100,–,> 100,–,> 100,–,> 100,–,> 100,> 100
CC1(C)[C@@H](Cn2cnc3c(Cl)nc(N)nc32)CC[C@@]1(C)CO,–,48.7,–,> 100,–,–,–,64.2,–,> 100,–,38,–,–,–,> 100,–,89.2,91.7
COc1ccccc1N1CCN(CCCNC(=O)c2cc(Cl)c(N)c(Cl)c2)CC1,–,41.6,–,> 100,–,37.7,–,> 100,–,> 100,–,> 100,–,92.6,–,–,–,54.5,–
O=C(OCc1ccccc1)C(Cc1ccccc1)N(Cc1ccccc1)Cc1ccccc1 (stereo not given),–,> 100,–,> 100,–,> 100,–,–,–,> 100,–,> 100,–,> 100,–,> 100,–,> 100,–
CCCCC/C(C=O)=C\c1ccccc1,–,> 100,–,> 100,–,–,–,> 100,–,> 100,–,> 100,–,> 100,–,> 100,–,> 100,–
N#Cc1c(C#N)c(-c2ccccc2)n(-c2ccccc2)c1N,–,–,–,> 100,–,> 100,–,> 100,–,> 100,–,> 100,–,> 100,–,> 100,–,> 100,> 100
O=C1CS(=O)C23c4cc5ccccc5n4CCC2CCCN13 (stereo not given),–,–,–,–,–,> 100,–,> 100,–,> 100,–,> 100,–,> 100,–,> 100,–,> 100,> 100
CC(C)(C)C(=O)C(Cc1ccccc1)C(=O)C(C)(C)C,–,> 100,–,> 100,–,> 100,–,–,–,> 100,–,–,–,> 100,–,> 100,–,> 100,> 100
O=C1CCc2ccc3c(c21)CC1(Cc2ccccc2C1)C3,–,49.3,–,> 100,–,70.5,–,> 100,–,> 100,–,–,–,> 100,–,> 100,–,> 100,> 100
COc1cc(CC(C)N)ccc1O (stereo not given),–,> 100,–,> 31.6,–,> 100,–,–,–,> 100,–,> 100,–,> 100,–,> 100,–,> 100,> 100
CCN(CC)CCNc1ccc2ncn3c4cc(OC)c(OC)c(=O)c4c(O)c1c23,–,23.2,–,53.1,–,36.8,–,26.9,–,29,–,36.6,–,11.5,–,28.9,–,20.2,–
Cc1cn([C@H]2C[C@](C)(CO)N(C)O2)c(=O)[nH]c1=O,–,> 100,–,–,–,> 100,–,> 100,–,–,–,> 100,–,> 100,–,> 100,–,> 100,> 100
O=C(O)c1c2c(cc3c1CC1(Cc4ccccc4C1=O)C3)CCC2 (stereo not given),–,13.4,–,33.9,–,76.6,–,16,–,> 95.4,–,> 100,–,36,–,> 100,–,52.3,–
COc1ccc(N=NC(=Nc2ccc(F)cc2)c2ccc(N(CCC#N)CCC#N)cc2)cc1,–,51.5,–,> 100,–,–,–,> 100,–,> 100,–,57.3,–,> 100,–,> 100,–,> 100,> 100
NC(=O)c1ncn2c1NC(=O)CC2,–,> 100,–,> 100,–,> 100,–,–,–,> 100,–,> 100,–,> 100,–,> 100,–,> 100,–
CC1=CC(=O)CC2(C)CCC(C(C)CC(=O)CC(C)C)CC12 (stereo not given),–,–,–,61.2,–,62.4,–,39,–,30,–,59.1,–,40.6,–,30.2,–,60.8,–
CN(C)P(=O)(Oc1occc1C(O)Cc1ccccc1)N(C)C (stereo not given),–,> 100,–,> 100,–,> 100,–,> 100,–,> 100,–,–,–,–,–,> 100,–,> 100,> 100
O=C1c2cccc(NCCNCCO)c2C(=O)c2cccc(NCCNCCO)c21,–,2.45,–,2.88,–,3.65,–,–,–,2.74,–,3.81,–,6.3,–,4.56,–,> 32.3,1.55
